The text below walks through data of patent publication US8865734B2 (priority 2010, dated 2014).

Converted amounts (≈) assume the structure as drawn.

Assay [1] relates to in vitro grown Mycobacteria (M. tuberculosis). The experiment in a line: QUM: Quantification of in vitro grown Mycobacteria (in vitro growth fluorescence assay). Type of assay: cell-based. As to conditions: Mycobacterium tuberculosis; MIC, 80% bacterial growth inhibition; in vitro growth; read-out: QUM. Put shortly:
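Mycobacterium tuberculosis grown in vitro was quantified by fluorescence across compound dose responses. MIC is defined as the minimum concentration producing 80% growth inhibition.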

Assay [2] concerns M. tuberculosis inside the host macrophage. The experiment in a line: QIM: Quantification of Intracellular Mycobacteria (intracellular growth assay, phenotypic cell-based). As to conditions: Mycobacterium tuberculosis; MIC, 80% bacterial growth inhibition; intracellular growth; read-out: QIM. Put shortly: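 Phenotypic high-content assay measuring M. tuberculosis multiplication inside host macrophages, run as dose response. MIC is the minimum compound concentration giving 80% bacterial growth inhibition.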

In the case of `CCc1nc2ccc(Cl)cn2c1C(=O)NCc1ccc2[nH]c(-c3ccc(OC(F)(F)F)cc3)nc2c1` [Compound 204, 6-Chloro-2-ethyl-N-((2-(4-(trifluoromethoxy)phenyl)-1H-benzo[d]imidazol-5-yl)methyl) imidazo[1,2-a]pyridine-3-carboxamide], the MIC in assay [1] and in assay [2] was more than 20 µM throughout.
Turning to `CCc1nc2ccc(C(F)(F)F)cn2c1C(=O)NCc1ccc(OC(F)(F)F)cc1` [Compound 151, 2-Ethyl-N-(4-(trifluoromethoxy)benzyl)-6-(trifluoromethyl)imidazo[1,2-a]pyridine-3-carboxamide], the MIC was 1 to 20 µM (≈ 0.431 to 8.63 µg/mL) in assay [1] and more than 20 µM in assay [2].
In the same order, the values of `Cc1nc2ccccn2c1C(=O)NCc1ccc(Oc2ccccc2)cc1` [Compound 15, 2-Methyl-N-(4-phenoxybenzyl)imidazo[1,2-a]pyridine-3-carboxamide] are 1 to 20 µM (≈ 0.357 to 7.15 µg/mL) and less than 1 µM.
In the same order, the values of `CCc1nc2ccc(C)cn2c1C(=O)NCc1ccc(-c2ccccc2)cc1` [Compound 62, N-(Biphenyl-4-ylmethyl)-2-ethyl-6-methylimidazo[1,2-a]pyridine-3-carboxamide] are less than 1 µM and less than 1 µM.
With `CCc1nc2cc(Cl)ccn2c1C(=O)NCc1ccc2[nH]c(-c3ccc(OC(F)(F)F)cc3)nc2c1` [Compound 205, 7-Chloro-2-ethyl-N-((2-(4-(trifluoromethoxy)phenyl)-1H-benzo[d]imidazol-5-yl)methyl) imidazo[1,2-a]pyridine-3-carboxamide], the MIC in assay [1] and in assay [2] was more than 20 µM in each case.
Turning to `Cc1nc2ccccn2c1C(=O)Nc1ccncc1` [Compound 5, 2-Methyl-N-(pyridin-4-yl)imidazo[1,2-a]pyridine-3-carboxamide], the MIC in assay [1] and in assay [2] was more than 20 µM in each case.
With `CCc1nc2cc(Cl)ccn2c1C(=O)NCc1ccc(Nc2ccc(OC(F)(F)F)cc2)cc1` [Compound 199, 7-Chloro-2-ethyl-N-(4-(4-(trifluoromethoxy)phenylamino)benzyl)imidazo[1,2-a]pyridine-3-carboxamide], the MIC in assay [1] and in assay [2] was less than 1 µM in each case.
For `CCCc1nc2ccccn2c1C(=O)NCc1ccccc1` [Compound 48, N-Benzyl-2-propylimidazo[1,2-a]pyridine-3-carboxamide], the MIC in assay [1] is 1 to 20 µM (≈ 0.293 to 5.87 µg/mL); in assay [2], more than 20 µM.
Taken in the same sequence, the figures for `Cc1nc2c(C)cccn2c1C(=O)NCc1ccccc1` [Compound 30, N-Benzyl-2,8-dimethylimidazo[1,2-a]pyridine-3-carboxamide] were more than 20 µM and more than 20 µM.
In the same order, the values of `CCc1nc2ccc(Cl)cn2c1C(=O)NCC1CCCc2c1cnn2-c1ccc(OC(F)(F)F)cc1` (stereo not drawn) [Compound 237, 6-Chloro-2-ethyl-N-((1-(4-(trifluoromethoxy)phenyl)-4,5,6,7-tetrahydro-1,1-indazol-4-yl)methyl)imidazo[1,2-a]pyridine-3-carboxamide] are more than 20 µM and more than 20 µM.
In the same order, the values of `Cc1nc2cc(C#N)ccn2c1C(=O)NCc1ccccc1` [Compound 35, N-Benzyl-7-cyano-2-methylimidazo[1,2-a]pyridine-3-carboxamide] are more than 20 µM and more than 20 µM.
Consider `CCc1nc2ccc(Cl)cn2c1C(=O)NCC1CCCc2c1cnn2-c1ccc(F)cc1` (stereo not drawn) [Compound 238, 6-Chloro-2-ethyl-N-((1-(4-fluorophenyl)-4,5,6,7-tetrahydro-1H-indazol-4-yl)methyl) imidazo[1,2-a]pyridine-3-carboxamide], for which the MIC in assay [1] and in assay [2] was more than 20 µM throughout.
Regarding `CCc1nc2cc(Cl)ccn2c1C(=O)NCc1ccc(N2CCN(C(C)C)CC2)cc1` [Compound 110, 7-Chloro-2-ethyl-N-(4-(4-isopropylpiperazin-1-yl)benzyl)imidazo[1,2-a]pyridine-3-carboxamide], the MIC in assay [1] is 1 to 20 µM (≈ 0.44 to 8.8 µg/mL); in assay [2], less than 1 µM.
As to `CCc1nc2ccc(Cl)cn2c1C(=O)NCc1ccc(N2CCC(Oc3ccc(F)cc3)CC2)cc1` [Compound 166, 6-Chloro-2-ethyl-N-(4-(4-(4-fluorophenoxy)piperidin-1-yl)benzyl)imidazo[1,2-a]pyridine-3-carboxamide], the MIC in assay [1] and in assay [2] was less than 1 µM throughout.
Turning to `CC(C)c1nc2ccccn2c1C(=O)NCc1ccccc1` [Compound 51, N-Benzyl-2-isopropylimidazo[1,2-a]pyridine-3-carboxamide], the MIC in assay [1] and in assay [2] was more than 20 µM each time.
With `CCc1nc2ccc(Cl)cn2c1C(=O)NCc1ccc(-c2ccc(C)cc2)cc1` [Compound 86, 6-Chloro-2-ethyl-N-((4′-methylbiphenyl-4-yl)methyl)imidazo[1,2-a]pyridine-3-carboxamide], the MIC in assay [1] and in assay [2] was less than 1 µM throughout.
`CCc1nc2ccc(Cl)cn2c1C(=O)NCc1ccc(-c2ccc(Cl)cc2C(F)(F)F)cc1` [Compound 129, 6-Chloro-N-((4′-chloro-2′-(trifluoromethyl)biphenyl-4-yl)methyl)-2-ethylimidazo[1,2-a]pyridine-3-carboxamide]: the MIC in assay [1] and in assay [2] was less than 1 µM each time.
With `CCCNc1ccc(CNC(=O)c2c(CC)nc3cc(Cl)ccn23)cc1` [Compound 106, 7-Chloro-2-ethyl-N-(4-(propylamino)benzyl)imidazo[1,2-a]pyridine-3-carboxamide], the MIC was less than 1 µM in assay [1] and 1 to 20 µM (≈ 0.371 to 7.42 µg/mL) in assay [2].
As to `CCc1nc2ccc(C)cn2c1C(=O)NCc1ccc2ccn(C)c2c1` [Compound 67, 2-Ethyl-6-methyl-N-((1-methyl-1H-indol-6-yl)methyl)imidazo[1,2-a]pyridine-3-carboxamide], the MIC in assay [1] and in assay [2] was less than 1 µM throughout.
Turning to `CCc1nc2cc(Cl)ccn2c1C(=O)NCc1ccc(-c2ccco2)cc1` [Compound 137, 7-Chloro-2-ethyl-N-(4-(furan-2-yl)benzyl)imidazo[1,2-a]pyridine-3-carboxamide], the MIC was 1 to 20 µM (≈ 0.38 to 7.6 µg/mL) in assay [1] and less than 1 µM in assay [2].
Taken in the same sequence, the figures for `CCc1nc2cc([N+](=O)[O-])ccn2c1C(=O)NCc1ccc(N2CCC(Oc3ccc(OC(F)(F)F)cc3)CC2)cc1` [Compound 170, 2-Ethyl-7-nitro-N-(4-(4-(4-(trifluoromethoxy)phenoxy)piperidin-1-yl)benzyl) imidazo[1,2-a]pyridine-3-carboxamide] were 1 to 20 µM (≈ 0.584 to 11.7 µg/mL) and 1 to 20 µM (≈ 0.584 to 11.7 µg/mL).
In the same order, the values of `CCc1nc2cc(Cl)ccn2c1C(=O)NCc1ccn(-c2ccc(F)cc2)n1` [Compound 236, 7-Chloro-2-ethyl-N-((1-(4-fluorophenyl)-1H-pyrazol-3-yl)methyl)imidazo[1,2-a]pyridine-3-carboxamide] are 1 to 20 µM (≈ 0.398 to 7.96 µg/mL) and more than 20 µM.
In the same order, the values of `CCc1nc2ccc(Cl)cn2c1C(=O)NCc1ccc(Nc2ccc(OC(F)(F)F)cc2)cc1` [Compound 198, 6-Chloro-2-ethyl-N-(4-(4-(trifluoromethoxy)phenylamino)benzyl)imidazo[1,2-a]pyridine-3-carboxamide] are 1 to 20 µM (≈ 0.489 to 9.78 µg/mL) and less than 1 µM.
As to `Cc1nc2ccccn2c1C(=O)NCc1ccc2[nH]ccc2c1` [Compound 17, N-((1H-Indol-5-yl)methyl)-2-methylimidazo[1,2-a]pyridine-3-carboxamide], the MIC in assay [1] and in assay [2] was 1 to 20 µM (≈ 0.304 to 6.09 µg/mL) throughout.
